Experimental data taken from patent US8674110B2, “Pyridylacetylenes for use as radiotracers and imaging agents” (Novartis AG, priority 2003, dated 2014).
“And” between values parts separate entries of the source, which are not always exact repeats. Identical values can stand only once.

Columns and labels:
human mGlu5 receptor = target: T1, human mGlu5 receptor (Homo sapiens, UniProt P41594); experiment: Ki/IC50 determination (binding assay), radioligand displacement
T1 construct: expressed in transfected cells
T1 sequence (P41594 21-1180 isoform P41594-2 limits assumed): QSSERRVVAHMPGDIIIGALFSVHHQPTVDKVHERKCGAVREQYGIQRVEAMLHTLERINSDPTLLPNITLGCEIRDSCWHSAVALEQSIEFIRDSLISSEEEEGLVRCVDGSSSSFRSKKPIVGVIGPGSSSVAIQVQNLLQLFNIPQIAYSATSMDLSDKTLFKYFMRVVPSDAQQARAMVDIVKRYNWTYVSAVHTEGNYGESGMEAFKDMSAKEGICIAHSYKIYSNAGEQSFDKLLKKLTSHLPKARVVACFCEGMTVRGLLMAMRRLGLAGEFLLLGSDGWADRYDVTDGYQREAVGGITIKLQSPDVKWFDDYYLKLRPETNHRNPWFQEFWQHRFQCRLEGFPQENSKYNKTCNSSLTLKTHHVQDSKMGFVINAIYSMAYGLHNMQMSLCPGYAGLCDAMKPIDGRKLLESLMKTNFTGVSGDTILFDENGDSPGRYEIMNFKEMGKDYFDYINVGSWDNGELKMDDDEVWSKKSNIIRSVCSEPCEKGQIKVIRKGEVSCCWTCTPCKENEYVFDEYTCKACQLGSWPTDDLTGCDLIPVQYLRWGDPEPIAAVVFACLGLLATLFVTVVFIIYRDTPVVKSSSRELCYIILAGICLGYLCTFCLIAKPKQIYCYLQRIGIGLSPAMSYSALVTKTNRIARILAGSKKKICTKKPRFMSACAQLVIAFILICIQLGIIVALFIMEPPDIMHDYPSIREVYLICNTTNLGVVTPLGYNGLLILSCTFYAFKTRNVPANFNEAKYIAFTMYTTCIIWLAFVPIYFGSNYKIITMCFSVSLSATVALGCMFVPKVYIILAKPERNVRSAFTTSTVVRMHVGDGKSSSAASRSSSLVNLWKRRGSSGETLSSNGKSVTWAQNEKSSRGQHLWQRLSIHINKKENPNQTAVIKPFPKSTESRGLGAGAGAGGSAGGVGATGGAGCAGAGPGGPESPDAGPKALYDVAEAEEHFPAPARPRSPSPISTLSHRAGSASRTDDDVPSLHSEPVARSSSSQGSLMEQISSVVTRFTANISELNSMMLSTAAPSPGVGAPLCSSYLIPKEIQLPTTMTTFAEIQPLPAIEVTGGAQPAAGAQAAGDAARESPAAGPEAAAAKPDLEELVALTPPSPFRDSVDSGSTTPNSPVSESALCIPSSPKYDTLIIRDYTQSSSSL
Experimental: In vitro, the affinity for the mGlu5 receptor is determined using a radioligand displacement technique as described by Gasparini et al, Biorg. Med. Chem. Lett. 2002, 12, 407-409.

mGlu5 receptors = target: T2, mGlu5 receptors (Rattus norvegicus, UniProt P31424); experiment: Organ and brain structure distribution (biodistribution) with and without blockade; type: in vivo, Sprague-Dawley rats; conditions: 30 min post-injection, individual values
T2 construct: from tissue; host or cells: rat brain regions and organs (in vivo tracer distribution)
T2 sequence (P31424 21-1203): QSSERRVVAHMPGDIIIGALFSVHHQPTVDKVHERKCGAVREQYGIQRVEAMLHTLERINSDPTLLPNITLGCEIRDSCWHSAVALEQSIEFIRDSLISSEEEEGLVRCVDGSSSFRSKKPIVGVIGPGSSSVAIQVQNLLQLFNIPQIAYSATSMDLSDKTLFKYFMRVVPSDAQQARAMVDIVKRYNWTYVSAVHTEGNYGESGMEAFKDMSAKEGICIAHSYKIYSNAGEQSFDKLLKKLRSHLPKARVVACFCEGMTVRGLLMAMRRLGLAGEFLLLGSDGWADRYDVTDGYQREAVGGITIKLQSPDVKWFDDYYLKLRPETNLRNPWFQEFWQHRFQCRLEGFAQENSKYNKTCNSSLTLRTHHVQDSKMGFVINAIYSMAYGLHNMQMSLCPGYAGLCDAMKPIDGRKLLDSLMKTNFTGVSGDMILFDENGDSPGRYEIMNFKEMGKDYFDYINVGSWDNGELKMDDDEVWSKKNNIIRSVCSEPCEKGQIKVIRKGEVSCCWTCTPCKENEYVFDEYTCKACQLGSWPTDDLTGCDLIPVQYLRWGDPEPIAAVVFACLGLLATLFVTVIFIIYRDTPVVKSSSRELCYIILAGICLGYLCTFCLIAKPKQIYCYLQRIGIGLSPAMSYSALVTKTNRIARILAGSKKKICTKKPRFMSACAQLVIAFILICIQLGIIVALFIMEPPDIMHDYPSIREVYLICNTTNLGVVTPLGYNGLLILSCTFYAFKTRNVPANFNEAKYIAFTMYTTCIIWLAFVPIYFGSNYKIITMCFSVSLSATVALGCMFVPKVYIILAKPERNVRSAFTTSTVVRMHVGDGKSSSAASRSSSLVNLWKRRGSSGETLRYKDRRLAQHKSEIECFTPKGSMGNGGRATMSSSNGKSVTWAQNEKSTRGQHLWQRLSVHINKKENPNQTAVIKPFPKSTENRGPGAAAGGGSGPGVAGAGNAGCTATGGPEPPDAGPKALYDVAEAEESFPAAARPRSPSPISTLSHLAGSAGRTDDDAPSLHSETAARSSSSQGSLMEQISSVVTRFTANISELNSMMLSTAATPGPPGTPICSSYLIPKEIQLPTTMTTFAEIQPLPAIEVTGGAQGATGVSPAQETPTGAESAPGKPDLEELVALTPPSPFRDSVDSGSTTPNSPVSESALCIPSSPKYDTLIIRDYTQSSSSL
Experimental: Two groups of male adult Sprague-Dawley rats weighing 250-300 g are used for the biodistribution studies. The first group (n=3) serves as the control group and the second group (n=3) serves as the blockade group. Each animal received 250-300 pmol (0.6-40 MBq) of 3-(6-methyl-pyridin-2-ylethynyl)-cyclohex-2-enone O-[^11C-methyl]oxime via a lateral tail vein. The blockade group is co-injected with 2-methyl-6-((3-methoxyphenyl)ethynyl)-pyridine (1 mg/kg) whereas the control group (n=3) receives a corresponding volume of 0.9% NaCl. The animals are sacrificed 30 min post-injection. Organ or brain regions such as hippocampus, striatum, cortex and cerebellum are removed and measured in a gamma-counter. The tissue distribution is expressed as percentage of injected dose per gram wet tissue (% ID/g organ).
K1, K2, K3 are individual values for control animals. B1, B2, B3 are individual values for animals co-injected with 2-methyl-6-((3-methoxyphenyl)ethynyl)-pyridine.

[1] = blockade animals B1-B3 co-injected with 2-methyl-6-((3-methoxyphenyl)ethynyl)-pyridine 1 mg/kg
[2] = control animals K1-K3 (0.9% NaCl), i.v. tail vein

Row | Ki (human mGlu5 receptor; calculated using the Cheng-Prusoff equation, radioligand concentration 2 nM) [nM] | Hill coefficient (human mGlu5 receptor; displacement of [3H]-2-methyl-6-((3-methoxyphenyl)ethynyl)-pyridine, L-tk cell membranes, human mGlu5) | IC50 (human mGlu5 receptor; membrane of L-tk cells stably expressing the human mGlu5 receptor, 95% confidence intervals: 6.0-10.0 nM, read-out: IC50 for the displacement of [3H]-2-methyl-6-((3-methoxyphenyl)ethynyl)-pyridine) [nM] | SMILES | percentage of injected dose per gram wet tissue, Cerebellum (mGlu5 receptors; [1]) | percentage of injected dose per gram wet tissue, Cortex (mGlu5 receptors; [1]) | percentage of injected dose per gram wet tissue, Hippocampus (mGlu5 receptors; [1]) | percentage of injected dose per gram wet tissue, Midbrain (mGlu5 receptors; [1]) | percentage of injected dose per gram wet tissue, Restbrain (mGlu5 receptors; [1]) | percentage of injected dose per gram wet tissue, Striatum (mGlu5 receptors; [1]) | percentage of injected dose per gram wet tissue, Whole brain (mGlu5 receptors; [1]) | percentage of injected dose per gram wet tissue, Cerebellum (mGlu5 receptors; [2]) | percentage of injected dose per gram wet tissue, Cortex (mGlu5 receptors; [2]) | percentage of injected dose per gram wet tissue, Hippocampus (mGlu5 receptors; [2]) | percentage of injected dose per gram wet tissue, Midbrain (mGlu5 receptors; [2]) | percentage of injected dose per gram wet tissue, Restbrain (mGlu5 receptors; [2]) | percentage of injected dose per gram wet tissue, Striatum (mGlu5 receptors; [2]) | percentage of injected dose per gram wet tissue, Whole brain (mGlu5 receptors; [2])
1 | 4 | 1.08 | 8 | CON=C1C=C(C#Cc2cccc(C)n2)CCC1 [3-(6-methyl-pyridin-2-ylethynyl)-cyclohex-2-enone O-methyl-oxime] |  |  |  |  |  |  |  |  |  |  |  |  |  | 
2 |  |  |  | Cc1cccc(C#CC2=CC(=NO[11CH3])CCC2)n1 [Example 1, 3-(6-Methyl-pyridin-2-ylethynyl)-cyclohex-2-enone O-[^11C-methyl]-oxime] | 0.04052 % ID/g organ and 0.03608 % ID/g organ and 0.03421 % ID/g organ | 0.04964 % ID/g organ and 0.05582 % ID/g organ and 0.05431 % ID/g organ | 0.05184 % ID/g organ and 0.06195 % ID/g organ and 0.05972 % ID/g organ | 0.03876 % ID/g organ and 0.047 % ID/g organ and 0.04422 % ID/g organ | 0.03832 % ID/g organ and 0.04762 % ID/g organ and 0.04383 % ID/g organ | 0.06495 % ID/g organ and 0.07158 % ID/g organ and 0.06487 % ID/g organ | 0.0458 % ID/g organ and 0.05118 % ID/g organ and 0.04951 % ID/g organ | 0.03322 % ID/g organ and 0.03925 % ID/g organ and 0.03699 % ID/g organ | 0.1485 % ID/g organ and 0.1832 % ID/g organ and 0.1691 % ID/g organ | 0.1615 % ID/g organ and 0.2544 % ID/g organ and 0.2126 % ID/g organ | 0.07703 % ID/g organ and 0.1056 % ID/g organ and 0.09091 % ID/g organ | 0.05519 % ID/g organ and 0.0652 % ID/g organ and 0.0607 % ID/g organ | 0.2256 % ID/g organ and 0.3069 % ID/g organ and 0.2816 % ID/g organ | 0.1112 % ID/g organ and 0.1366 % ID/g organ and 0.13 % ID/g organ
